We go through 4 molecules from patent US12391737B2, “Soluble NPY2 receptor agonists” (Boehringer Ingelheim International GmbH, priority 2020, dated 2025).

As a reminder, the Ki is a dissociation constant, usually derived from enzyme kinetics or from competition with a known ligand. In general, EC50 refers to the concentration at which the effect is half-maximal. A low value points to a more potent agent.

Series [1] concerns the target T1, Human Neuropeptide Y2 Receptor (Homo sapiens, UniProt P49146).
T1 construct: purchased CHEMICON HTS066M
T1 sequence (P49146 1-381): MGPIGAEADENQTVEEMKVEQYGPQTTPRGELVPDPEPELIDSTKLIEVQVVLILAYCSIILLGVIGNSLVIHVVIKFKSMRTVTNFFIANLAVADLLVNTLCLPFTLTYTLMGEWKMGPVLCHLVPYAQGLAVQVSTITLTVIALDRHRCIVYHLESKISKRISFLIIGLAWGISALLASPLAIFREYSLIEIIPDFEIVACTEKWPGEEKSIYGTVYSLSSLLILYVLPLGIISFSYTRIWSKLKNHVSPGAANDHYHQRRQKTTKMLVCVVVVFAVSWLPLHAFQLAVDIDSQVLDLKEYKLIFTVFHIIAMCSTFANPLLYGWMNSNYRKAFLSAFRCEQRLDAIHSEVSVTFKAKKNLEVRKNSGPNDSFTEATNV
Description: Radioligand binding competition assay (RLB). To be noted: Table 3, 125I-PYY(1-36) competition; read-out: Ki. The method in brief: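 Filtration binding assay on human Y2 receptor membrane preparation, 0.5 μg protein per well, in 50 mM HEPES pH 7.4 containing 5 mM MgCl2, 1 mM CaCl2 and 0.2% ovalbumin. Plates shake 2 h at room temperature before harvest and scintillation counting.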

Series [2] deals with T2, human NPY5 receptor (hY5R) (Homo sapiens, UniProt Q15761).
T2 sequence (Q15761 1-445): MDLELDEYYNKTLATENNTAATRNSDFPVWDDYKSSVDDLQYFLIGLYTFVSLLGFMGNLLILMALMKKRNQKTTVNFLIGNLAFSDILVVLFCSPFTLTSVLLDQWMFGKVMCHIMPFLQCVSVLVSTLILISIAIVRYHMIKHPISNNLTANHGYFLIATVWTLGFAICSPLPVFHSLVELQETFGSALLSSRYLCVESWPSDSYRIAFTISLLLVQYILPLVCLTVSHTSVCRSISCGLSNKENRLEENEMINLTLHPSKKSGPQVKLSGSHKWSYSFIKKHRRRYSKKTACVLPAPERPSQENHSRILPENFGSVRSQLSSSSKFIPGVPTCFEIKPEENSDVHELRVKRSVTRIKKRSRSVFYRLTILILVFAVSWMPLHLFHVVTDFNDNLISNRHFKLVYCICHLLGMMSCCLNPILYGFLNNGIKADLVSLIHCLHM
Put plainly: HTRF cAMP Gi assay, hY5R. (In TR-FRET formats the signal depends on donor and acceptor labels being close together.)

The nature of a further series: Solubility determination. The settings on record: for Sol6: pH 6; for Sol7: pH 7. The method in brief: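 Sample: TFA-salt peptide at 10 mg/ml target in 0.1 M Na diphosphate, pH 6.4 or 7.0, shaken 2 h RT, filtered, diluted to 1 mg/ml.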
In series [3] the target is T3, human NPY2 receptor (hY2R) (Homo sapiens, UniProt P49146).
T3 sequence (P49146 1-381): T1 sequence (P49146 1-381)
Put plainly: HTRF cAMP Gi assay, hY2R.
Description: The Homogenous Time Resolved fluorescence (HTRF) technology optimized for Gi coupled receptors has thoroughly been described in Cisbio cAMP Gi kit manual. Briefly, the production of intracellular cAMP will generate a competition between unlabeled cAMP and exogenously added d2-cAMP for anti-cAMP antibodies conjugated to cryptate. CHO-K1 cells stably expressing the human NPY1, NPY2, NPY4 and NPY5 receptors were used with the cells brought to life from a frozen stock immediately before assay performance. 2000 cells per well were applied for all four NPY receptor subtype assays. A 384-well format was used applying a total volume of 20 μl using 5 μl cells, 2.5 μl peptide agonist, 2.5 μl forskolin and 5 μl of each of the fluorophores. […] Concentration-response evaluation of compounds was performed with 11 concentrations of agonist peptides (covering 3 decades). EC50 values were calculated by nonlinear regression using sigmoid concentration-response with variable slope.

Each structure is given as a SMILES string.

`CC(C)CC(=O)N[C@@H](C)C(=O)N1CCC[C@H]1C(=O)N[C@@H](CCC(=O)O)C(=O)N[C@@H](CCCCNC(=O)CCCCCNC(=O)CC[C@H](NC(=O)CCCCCCCCCCCCCCCCC(=O)O)C(=O)O)C(=O)N1CCC[C@H]1C(=O)N[C@@H](CCC(=O)O)C(=O)N[C@@H](C)C(=O)N[C@@H](CC(=O)O)C(=O)N[C@@H](C)C(=O)N[C@@H](CCC(=O)O)C(=O)N1CCC[C@H]1C(=O)N[C@@H](CCC(=O)O)C(=O)N[C@@H](CCC(=O)O)C(=O)N[C@@H](CC(C)C)C(=O)N[C@@H](CCC(N)=O)C(=O)N[C@@H](CCCNC(=N)N)C(=O)N[C@@H](Cc1ccc(O)cc1)C(=O)N[C@@H](Cc1ccc(O)cc1)C(=O)N[C@H](C(=O)N[C@@H](CO)C(=O)N[C@@H](CC(C)C)C(=O)N[C@@H](CCCNC(=N)N)C(=O)N[C@@H](Cc1c[nH]cn1)C(=O)N[C@@H](Cc1ccc(O)cc1)C(=O)N[C@@H](Cc1ccc(O)cc1)C(=O)N[C@@H](CC(N)=O)C(=O)N[C@@H](Cc1c[nH]c2ccccc12)C(=O)N[C@@H](CC(C)C)C(=O)N[C@H](C(=O)N[C@@H](CCCNC(=N)N)C(=O)N[C@@H](CCC(N)=O)C(=O)N[C@@H](CCCNC(=N)N)C(=O)N[C@@H](Cc1ccc(O)cc1)C(N)=O)[C@@H](C)O)C(C)C` [Compound 72, N{alpha-4}-(3-methylbutanoyl)-N{epsilon-7}-(6-[(4S)-4-carboxy-4-(17-carboxyheptadecanamido)butanamido]hexanoyl)-[4A,7K,9E,10A,13E,18Q,22V,28Y,30W,31L]-hPYY(4-36)]: the Ki in series [1] came to 2.79 nM. Also, in series [2], the EC50 was > 5000 nM. In “Solubility determination”, the “Sol6” value was found to be 9.0 mg/mL and the “Sol7” value was found to be 9.2 mg/mL. For the same molecule, the EC50 in series [3] was determined as 0.197 nM.

For the molecule `CC(C)CC(=O)N[C@@H](C)C(=O)N1CCC[C@H]1C(=O)N[C@@H](CCC(=O)O)C(=O)N[C@@H](CCCCNC(=O)CCCCCNC(=O)CC[C@H](NC(=O)CCCCCCCCCCCCCCCCC(=O)O)C(=O)O)C(=O)N1CCC[C@H]1C(=O)N[C@@H](CCC(=O)O)C(=O)N[C@@H](C)C(=O)N[C@@H](CC(=O)O)C(=O)N[C@@H](C)C(=O)N[C@@H](CO)C(=O)N1CCC[C@H]1C(=O)N[C@@H](CCC(=O)O)C(=O)N[C@@H](CCC(=O)O)C(=O)N[C@@H](CC(C)C)C(=O)N[C@@H](CCC(N)=O)C(=O)N[C@@H](CCCNC(=N)N)C(=O)N[C@@H](Cc1ccc(O)cc1)C(=O)N[C@@H](Cc1ccc(O)cc1)C(=O)N[C@H](C(=O)N[C@@H](CO)C(=O)N[C@@H](CC(C)C)C(=O)N[C@@H](CCCNC(=N)N)C(=O)N[C@@H](Cc1c[nH]cn1)C(=O)N[C@@H](Cc1ccc(O)cc1)C(=O)N[C@@H](Cc1ccc(O)cc1)C(=O)N[C@@H](CC(N)=O)C(=O)N[C@@H](Cc1c[nH]c2ccccc12)C(=O)N[C@@H](CC(C)C)C(=O)N[C@H](C(=O)N[C@@H](CCCNC(=N)N)C(=O)N[C@@H](CCC(N)=O)C(=O)N[C@@H](CCCNC(=N)N)C(=O)N[C@@H](Cc1ccc(O)cc1)C(N)=O)[C@@H](C)O)C(C)C` [Compound 196, N{alpha-4}-(3-methylbutanoyl)-N{epsilon-7}-(6-[(4S)-4-carboxy-4-(17-carboxyheptadecanamido)butanamido]hexanoyl)-[4A,7K,9E,10A,18Q,22V,28Y,30W,31L]-hPYY(4-36)], the Ki in series [1] was 3.57 nM. The EC50 in series [2] is > 5000 nM. Also, in “Solubility determination”, the “Sol6” value stood at 8.4 mg/mL and the “Sol7” value was found to be 9.8 mg/mL. For the same molecule, in series [3], it took 0.086 nM to reach a half-maximal effect (EC50).

In the case of `CC(C)CC(=O)N[C@@H](C)C(=O)N1CCC[C@H]1C(=O)N[C@@H](CCC(=O)O)C(=O)N[C@@H](CCCCNC(=O)CCCCCNC(=O)CC[C@H](NC(=O)CCCCCCCCCCCCCCCCC(=O)O)C(=O)O)C(=O)N1CCC[C@H]1C(=O)N1CCC[C@H]1C(=O)N[C@@H](CCC(=O)O)C(=O)N[C@@H](CC(=O)O)C(=O)N[C@@H](C)C(=O)N[C@@H](CO)C(=O)N1CCC[C@H]1C(=O)N[C@@H](CCC(=O)O)C(=O)N[C@@H](CCC(=O)O)C(=O)N[C@@H](CC(C)C)C(=O)N[C@@H](CCC(N)=O)C(=O)N[C@@H](CCCNC(=N)N)C(=O)N[C@@H](Cc1ccc(O)cc1)C(=O)N[C@@H](Cc1ccc(O)cc1)C(=O)N[C@H](C(=O)N[C@@H](CO)C(=O)N[C@@H](CC(C)C)C(=O)N[C@@H](CCCNC(=N)N)C(=O)N[C@@H](Cc1c[nH]cn1)C(=O)N[C@@H](Cc1ccc(O)cc1)C(=O)N[C@@H](Cc1ccc(O)cc1)C(=O)N[C@@H](CC(N)=O)C(=O)N[C@@H](Cc1c[nH]c2ccccc12)C(=O)N[C@@H](CC(C)C)C(=O)N[C@H](C(=O)N[C@@H](CCCNC(=N)N)C(=O)N[C@@H](CCC(N)=O)C(=O)N[C@@H](CCCNC(=N)N)C(=O)N[C@@H](Cc1ccc(O)cc1)C(N)=O)[C@@H](C)O)C(C)C` [Compound 14, N{alpha-4}-(3-methylbutanoyl)-N{epsilon-7}-(6-[(4S)-4-carboxy-4-(17-carboxyheptadecanamido)butanamido]hexanoyl)-[4A,7K,9P,18Q,22V,28Y,30W,31L]-hPYY(4-36)], the Ki in series [1] was 1.28 nM. Further, in series [2], the EC50 is > 5000 nM. In “Solubility determination”, the “Sol6” value came to 9.3 mg/mL and the “Sol7” value amounted to 8.4 mg/mL. This molecule also registered an EC50 in series [3] of 0.086 nM.

As to `CC(C)CC(=O)N[C@@H](C)C(=O)N1CCC[C@H]1C(=O)N[C@@H](CCC(=O)O)C(=O)N[C@@H](CCCCNC(=O)CCCCCNC(=O)CC[C@H](NC(=O)CCCCCCCCCCCCCCCCC(=O)O)C(=O)O)C(=O)N1CCC[C@H]1C(=O)N[C@@H](CCC(=O)O)C(=O)N[C@@H](CCC(=O)O)C(=O)N[C@@H](CCC(=O)O)C(=O)N[C@@H](C)C(=O)N[C@H](C(=O)N1CCC[C@H]1C(=O)N[C@@H](CCC(=O)O)C(=O)N[C@@H](CCC(=O)O)C(=O)N[C@@H](CC(C)C)C(=O)N[C@@H](CCC(N)=O)C(=O)N[C@@H](CCCNC(=N)N)C(=O)N[C@@H](Cc1ccc(O)cc1)C(=O)N[C@@H](Cc1ccc(O)cc1)C(=O)N[C@H](C(=O)N[C@@H](CO)C(=O)N[C@@H](CC(C)C)C(=O)N[C@@H](CCCNC(=N)N)C(=O)N[C@@H](Cc1c[nH]cn1)C(=O)N[C@@H](Cc1ccc(O)cc1)C(=O)N[C@@H](Cc1ccc(O)cc1)C(=O)N[C@@H](CC(N)=O)C(=O)N[C@@H](Cc1c[nH]c2ccccc12)C(=O)N[C@@H](CC(C)C)C(=O)N[C@H](C(=O)N[C@@H](CCCNC(=N)N)C(=O)N[C@@H](CCC(N)=O)C(=O)N[C@@H](CCCNC(=N)N)C(=O)N[C@@H](Cc1ccc(O)cc1)C(N)=O)[C@@H](C)O)C(C)C)[C@@H](C)O` [Compound 146, N{alpha-4}-(3-methylbutanoyl)-N{epsilon-7}-(6-[(4S)-4-carboxy-4-(17-carboxyheptadecanamido)butanamido]hexanoyl)-[4A,7K,9E,11E,13T,18Q,22V,28Y,30W,31L]-hPYY(4-36)], the Ki in series [1] stood at 8.93 nM. In addition, in series [2], the concentration for a half-maximal effect (EC50) was > 5000 nM. In addition, in “Solubility determination”, the “Sol6” value turned out to be 9.8 mg/mL and the “Sol7” value was 9.6 mg/mL. In series [3], this molecule registered an EC50 of 0.13 nM.
